Reference: ChEMBL document CHEMBL1125952, “Prevention of human leukocyte elastase-mediated lung damage by 3-alkyl-4-azetidinones” (1991)

What was measured:
[1] = molecular target: T1, Neutrophil elastase (Homo sapiens) (UniProt P08246); experiment: Inhibition of human leukocyte elastase-induced lung hemorrhage in hamster, after 100 ug of compound administered intratracheally.; format: functional, tissue-based
T1 sequence (whole entry): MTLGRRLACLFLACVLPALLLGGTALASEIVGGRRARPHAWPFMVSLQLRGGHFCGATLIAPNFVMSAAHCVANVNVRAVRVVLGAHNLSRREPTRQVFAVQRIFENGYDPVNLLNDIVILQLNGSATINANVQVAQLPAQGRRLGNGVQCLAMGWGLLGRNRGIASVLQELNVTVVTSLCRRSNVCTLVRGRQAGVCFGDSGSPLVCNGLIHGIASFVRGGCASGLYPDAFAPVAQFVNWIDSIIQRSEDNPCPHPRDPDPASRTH

[2] = molecular target: T1, Neutrophil elastase (Homo sapiens); experiment: Inhibition of human leukocyte elastase, expressed as biomolecular rate constant.
[3] = tested on: Cricetinae gen. sp.; experiment: Compound at dose 20 ug was tested for percentage inhibition of HLE-induced Lung Hemorrhage in hamsters at 1 hr prior to installation of human leukocyte elastase; format: functional, Cricetulus griseus
[4] = tested on: Cricetinae gen. sp.; experiment: Compound at dose 20 ug was tested for percentage inhibition of HLE-induced Lung Hemorrhage in hamsters at 2 hr prior to installation of human leukocyte elastase; format: functional, Cricetulus griseus
[5] = tested on: Cricetinae gen. sp.; experiment: Compound at dose 20 ug was tested for percentage inhibition of HLE-induced Lung Hemorrhage in hamsters at 3 hr prior to installation of human leukocyte elastase; format: functional, Cricetulus griseus
[6] = tested on: Cricetinae gen. sp.; experiment: Compound at dose 20 ug was tested for percentage inhibition of HLE-induced Lung Hemorrhage in hamsters at 4 hr prior to installation of human leukocyte elastase; format: functional, Cricetulus griseus
[7] = tested on: Cricetinae gen. sp.; experiment: Effective dose administered intratracheally required to give 50% inhibition at 30 minutes prior to installation of human leukocyte elastase in hamster lung; format: functional, Cricetulus griseus

Row | SMILES | inhibition [1] | K obs / 1 [2] | Inhibition [3] | Inhibition [4] | Inhibition [5] | Inhibition [6] | ED50 [7]
1 | CCC1C(=O)N(S(=O)(=O)c2ccc(C)cc2)C1C(=O)O (cis isomer) | 80% | 93 M⁻¹ s⁻¹ | – | – | – | – | –
2 | CCOC(=O)N1C(=O)C(CC)C1OCCC(=O)O (trans isomer) | 31% | 560 M⁻¹ s⁻¹ | – | – | – | – | –
3 | CCOC(=O)N1C(=O)C(CC)C1OCC(=O)O (trans isomer) [listing 2 of 2 here] | – | – | 96% | 63% | 36% | -5% | 6.3 µg
4 | CCOC(=O)N1C(=O)C(CC)C1OC(C)C(=O)O (single isomer, unassigned; isomer B) | 81% | 158 M⁻¹ s⁻¹ | – | – | – | – | –
5 | CCC1C(=O)N(S(=O)(=O)c2ccc(C)cc2)C1C(=O)N(C)CC(=O)O (cis isomer) | 84% | 165 M⁻¹ s⁻¹ | 78% | 68% | 60% | 4% | 18.7 µg
6 | CCC1C(=O)N(S(=O)(=O)c2ccc(C)cc2)C1C(=O)OCC(=O)O (stereo in doubt) | 14% | 9420 M⁻¹ s⁻¹ | – | – | – | – | –
7 | CO[C@H]1C(=O)N2C(C(=O)N3CCC[C@H]3C(=O)O)=C(COC(C)=O)CS(=O)(=O)[C@H]12 | – | – | 98% | 85% | 74% | -23% | 3.1 µg
8 | CC[C@H]1C(=O)N(S(=O)(=O)c2ccc(C)cc2)[C@H]1C(=O)N(C)CC(=O)O | 61% | 110 M⁻¹ s⁻¹ | – | – | – | – | –
9 | CCC1C(=O)N(C(=O)NCc2ccccc2)C1Oc1ccc(CC(=O)O)cc1 (trans isomer) | – | 2070 M⁻¹ s⁻¹ | – | – | – | – | –
10 | CCOC(=O)N1C(=O)C(CC)C1SCC(=O)O (trans isomer) | 56% | 1090 M⁻¹ s⁻¹ | – | – | – | – | –
11 | CCOC(=O)N1C(=O)[C@H](CC)[C@H]1OCC(=O)O | 99% | 918 M⁻¹ s⁻¹ | 100% | 82% | 59% | -14% | 3.9 µg
12 | CCC1C(=O)N(S(=O)(=O)c2ccc(C)cc2)C1C(=O)OCC(=O)O (cis isomer) [listing 2 of 2 here] | – | – | 66% | 32% | 11% | 30% | 24.6 µg
13 | CC[C@H]1C(=O)N(C(=O)NCc2ccccc2)[C@@H]1Oc1ccc(C(=O)O)cc1 | 2% | 3840 M⁻¹ s⁻¹ | – | – | – | – | –

Now from value to molecule, other results behind:

Row | inhibition [1] | K obs / 1 [2] | SMILES | Inhibition [3] | Inhibition [4] | Inhibition [5] | Inhibition [6] | ED50 [7]
14 | 50% | 129 M⁻¹ s⁻¹ | CCC1C(=O)N(C(=O)NCc2ccccc2)C1OCC(=O)O (stereo not given) | – | – | – | – | –
15 | 71% | 1670 M⁻¹ s⁻¹ | CCOC(=O)N1C(=O)C(CC)C1[S+]([O-])CC(=O)O (stereo not given) | – | – | – | – | –
16 | 86% | 136 M⁻¹ s⁻¹ | CCOC(=O)N1C(=O)[C@@H](CC)[C@@H]1OCC(=O)O | 92% | 49% | 6% | -3% | 11.3 µg
17 | 73% | 1550 M⁻¹ s⁻¹ | CCC1C(=O)N(S(=O)(=O)c2ccc(C)cc2)C1C(=O)OCC(=O)O (cis isomer) [listing 1 of 2 here] | – | – | – | – | –
18 | 98% | 467 M⁻¹ s⁻¹ | CCOC(=O)N1C(=O)C(CC)C1OCC(=O)O (trans isomer) [listing 1 of 2 here] | – | – | – | – | –
19 | 72% | 1000 M⁻¹ s⁻¹ | CCOC(=O)N1C(=O)C(CC)C1OCC(=O)NCC(=O)O (stereo not given) | – | – | – | – | –
20 | 88% | 1500 M⁻¹ s⁻¹ | CCCC1C(=O)N(C(=O)OCC)C1OCC(=O)O (stereo not given) | 83% | 31% | -17% | -2% | 6.3 µg
21 | 98% | 377 M⁻¹ s⁻¹ | CC[C@H]1C(=O)N(S(=O)(=O)c2ccc(C)cc2)[C@@H]1C(=O)O | 78% | 33% | 1% | 16% | 3 µg
22 | 74% | 398 M⁻¹ s⁻¹ | CC[C@@H]1C(=O)N(S(=O)(=O)c2ccc(C)cc2)[C@H]1C(=O)N(C)CC(=O)O | – | – | – | – | –
23 | 70% | 5620 M⁻¹ s⁻¹ | CCOC(=O)N1C(=O)C(CC)C1S(=O)(=O)CC(=O)O (trans isomer) | – | – | – | – | –
24 | 94% | 732 M⁻¹ s⁻¹ | CC[C@@H]1C(=O)N(S(=O)(=O)c2ccc(C)cc2)[C@@H]1C(=O)N(C)CC(=O)O | – | – | – | – | –
25 | 81% | 796 M⁻¹ s⁻¹ | CCOC(=O)N1C(=O)C(CC)C1OCC(=O)O (cis isomer) | – | – | – | – | –
26 | – | 6350 M⁻¹ s⁻¹ | CCOC(=O)N1C(=O)C(CC)C1Oc1ccc(C(=O)O)cc1 (trans isomer) | – | – | – | – | –
27 | 51% | 955 M⁻¹ s⁻¹ | CCC1C(=O)N(C(=O)OCc2ccccc2)C1OCC(=O)O (trans isomer) | – | – | – | – | –
28 | 17% | 339 M⁻¹ s⁻¹ | CC[C@@H]1C(=O)N(C(=O)NCc2ccccc2)[C@H]1Oc1ccc(C(=O)O)cc1 | – | – | – | – | –
29 | 99% | 271 M⁻¹ s⁻¹ | CC[C@H]1C(=O)N(S(=O)(=O)c2ccc(C)cc2)[C@@H]1C(=O)N(C)CC(=O)O | – | – | – | – | –
30 | 71% | 346 M⁻¹ s⁻¹ | CCOC(=O)N1C(=O)C(CC)C1OC(C)C(=O)O (single isomer, unassigned; isomer A) | – | – | – | – | –
31 | – | 4100 M⁻¹ s⁻¹ | CCOC(=O)N1C(=O)C(CC)C1Oc1ccc(CC(=O)O)cc1 (trans isomer) | – | – | – | – | –
32 | 23% | 1250 M⁻¹ s⁻¹ | CCOC(=O)N1C(=O)C(CC)C1OCCCC(=O)O (trans isomer) | – | – | – | – | –
